According to the NIST ThermoML archive (doi:10.1021/je900922x):

Assays:
[1] = Liquid, Pycnometric method
[2] = molar heat capacity at constant pressure; conditions: Liquid, metal-bellows calorimeter

COC [dimethyl ether]
Conditions | mass density, [1] [kg/m3] | molar heat capacity at constant pressure, [2] [J/K/mol]
310 K, 2000 kPa | 643.5 | 123.92
310 K, 3000 kPa | 646 | 122.08
310 K, 4000 kPa | 648 | 121.62
310 K, 5000 kPa | 650.2 | 121.16
320 K, 2000 kPa | 626 | 127.61
320 K, 3000 kPa | 628.7 | 125.77
320 K, 4000 kPa | 631.1 | 124.85
320 K, 5000 kPa | 634.3 | 124.85
330 K, 2000 kPa | 606.5 | 131.3
330 K, 3000 kPa | 609.8 | 128.53
330 K, 4000 kPa | 613.4 | 128.07
330 K, 5000 kPa | 616.5 | 127.15
340 K, 2000 kPa | 585.3 | 137.74
340 K, 3000 kPa | 589.6 | 134.98
340 K, 4000 kPa | 593.6 | 132.22
340 K, 5000 kPa | 597.4 | 129.45
350 K, 3000 kPa | 566.8 | 140.51
350 K, 4000 kPa | 572 | 137.28
350 K, 5000 kPa | 576.7 | 132.68
360 K, 3000 kPa | 540.2 | 153.87
360 K, 4000 kPa | 547.4 | 145.12
360 K, 5000 kPa | 553.5 | 136.36
